Assay [1] has as its system HeLa cells transiently expressing TMEM192-V5-APEX2. Briefly: Lysosome diameter and lysosome-mitochondria contact under lysosomal stressors (JFT1 labeling by TMEM192-V5-APEX2). The format is cell-based, Human. Conditions: for fold increase of lysosomal diameter vs DMSO treatment / mean lysosomal diameter: BFA 100 nM or U18666A 2 μg/ml, 18 h; for mitochondria-lysosome co-localization: HeLa cells co-expressing mito-mEosEM and TMEM192-V5-APEX2; for mean lysosomal diameter: mean (±SEM). As for the experimental part: Fluorescently labeled lysosome (JFT1-labeled or Lysotracker Red, RFP channel) and mitochondria (mito-mEosEM, GFP channel) area were analyzed using Fiji/ImageJ (National Institutes of Health, USA). Area corresponding to the colocalization of lysosome-mitochondria were delimited manually by thresholding keeping the same threshold for control. The colocalized area was measured for 5 cells in each group. To measure lysosome diameter, we utilized Fiji/ImageJ. Initially, the images were converted to 8-bit and the pixel measurements were calibrated using a scale bar. Circular lysosomes were then selected and a line representing the diameter of each selected lysosome was drawn, referencing the limiting membrane according to the JFT1 fluorescence signal. Subsequently, we utilized the “analyze and measure” feature of ImageJ, which generates a table with various parameters such as area and length. To convert the length from pixels to micrometers, we applied the following formula: (pixel diameter/pixels on the scale bar)×10 μm. Once the values were converted, they were plotted and statistical analysis for unpaired t-test was performed using Prism GraphPad software ([…] et al., 2021). HeLa cells transiently expressing TMEM192-V5-APEX2 were plated on coverslips (thickness no. 1.5, radius 18 mm). The cells were then treated with DMSO or U18666A (2 ug/ml), Bafilomycin A1 (100 nM) in DMEM for 18 h at 37° C. and washed three times with cold DPBS. The cells were fixed in 4% paraformaldehyde for 15 min at room temperature. Next, JFT1 labeling was done using 100 μM of the probe and 1 mM H2O2 for 5 min. Reaction was quenched and cells were permeabilized for immunofluorescence imaging with cold methanol for 5 min at -20° C., followed by washing with DPBS and blocking for 1 h with 2% bovine serum albumin in DPBS at room temperature.

The target in the next assay is T1, HRP (Armoracia rusticana, UniProt P00433).
T1 sequence (P00433 31-338 limits assumed): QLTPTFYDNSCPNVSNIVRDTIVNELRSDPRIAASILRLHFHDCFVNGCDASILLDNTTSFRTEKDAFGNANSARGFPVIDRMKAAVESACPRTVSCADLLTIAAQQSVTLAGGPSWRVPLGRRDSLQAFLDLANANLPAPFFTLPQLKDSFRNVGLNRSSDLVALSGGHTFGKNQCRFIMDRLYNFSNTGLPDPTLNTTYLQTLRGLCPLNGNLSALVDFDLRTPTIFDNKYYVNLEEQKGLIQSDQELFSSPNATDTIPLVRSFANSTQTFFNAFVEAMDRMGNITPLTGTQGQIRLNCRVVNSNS
Briefly: Polymerization of JF catalyzed by HRP. Type of assay: biochemical, horseradish. The procedure:
JF (400 μM) was prepared by dissolving the powder in DMSO. To induce the polymerization of JF, 10 μM of HRP was added along with 2 mM H2O2. JF-precipitate starts forming after 30 minutes of incubation with HRP and H2O2. This reaction was carried out at room temperature for 24 h to acquire the polymerized JF. The mixture was centrifuged at 15,000 g for 10 min to separate the polymerized JF product from non-reacted JF.

The subject of the next assay is endogenous peroxidases. Put plainly: Reaction with endogenous peroxidases in live cells. Type of assay: cell-based. Conditions: high concentrations (≥100 μM) for 1 h in live cells. The procedure:
However, our focus was on utilizing JFT for CLEM imaging under fixed conditions. For live-cell APEX2 labeling experiments, JF or JFA (50-100 μM) was incubated with 1 mM H2O2 for 1 min. Both JF and JFA are cell-permeable and can react with APEX2 under live-cell conditions. […] We observed that a 5-min incubation of high concentrations of JFT1 ([…]) and H2O2 (0.5-1 mM) can generate selective FLEX labeling where APEX2-POIs are expressed (see Methods for details). For live-cell experiments, it would be highly advantageous to further develop JF probes with negligible activity against endogenous peroxidase in live-cell conditions while still maintaining reactivity for the APEX or HRP reaction. Since JFT was synthesized from JFA, this strategy opens up the possibility of generating further variations in JFT or other JF-based probes using various azido-click moieties. This approach could lead to the development of improved probes with enhanced performance for live-cell imaging applications.

The subject of the next assay is TOM20-V5-APEX2. Briefly: Live-cell APEX labeling using JF probes. Type of assay: cell-based, Human. Conditions: 5 min pre-incubation, 1 mM H2O2 1 min, TOM20-V5-APEX2-expressing cells. As for the experimental part:
To visualize various APEX2-POIs in live cells, JF or JFA (50-100 μM) and 1 mM H2O2 were treated to APEX2-POI expressing cells during the live stage. After treatment, cells were washed thrice with DPBS and then fixed with 4% PFA in 1×DPBS for 15 minutes at room temperature. For immuno-fluorescence imaging, cells were permeabilized with −20° C. methanol for 5 minutes, followed by the standard immunofluorescence staining protocol. To detect JF or JFA fluorescence and immunofluorescence, we used the GFP channel (excitation at 488 nm), RFP channel (excitation at 561 nm), and Cy5 channel (excitation at 647 nm) of a confocal light microscope (FV3000, Olympus, Japan). HeLa cells were used for imaging experiments.
Further, the APEX reaction in live cells utilizing the JF probes in cells expressing TOM20-V5-APEX2 at the cytosolic face of the outer mitochondrial membrane (OMM) were examined. Each JF probe (JF, JFA, JFT1, JFT2, and JFT3) was pre-incubated with the cells for 5 min, followed by the addition of 1 mM H2O2 and incubation for 1 min to activate the peroxidase.

`CO/C1=C\C(C)=C\[C@@H](C)[C@@H](O)[C@@H](C)C/C(C)=C/C=C/[C@H](OC)[C@@H]([C@@H](C)[C@@H](O)[C@H](C)[C@@]2(O)C[C@@H](O)[C@H](C)[C@@H](C(C)C)O2)OC1=O` [Bafilomycin A1]: in assay [1], the “fold increase of lysosomal diameter vs DMSO treatment” value was 2.7 fold, the mitochondria-lysosome co-localization result was “more merged patterns” and the mean lysosomal diameter was 1.20 μm.

On to `CC[n+]1c(/C=C/c2ccc(O)cc2)sc2ccccc21` [JF, (E)-3-ethyl-2-(4-hydroxystyryl)benzo[d]thiazol-3-ium, reference compound], for which, at HRP (HRP and H2O2), the “precipitate formation upon HRP-mediated reaction” value is “macroscopic precipitate deposition”. At HRP (JF 400 μM, 10 μM HRP, 2 mM H2O2, room temperature), the “time at which JF-precipitate starts forming” value was determined as 30 min. In the assay on endogenous peroxidases, the “reactivity with endogenous peroxidases” value is “can also react with endogenous peroxidases”. The “fluorescence staining in live cells” value in the assay on TOM20-V5-APEX2 was “red fluorescence stains”.

Regarding `C#CC[n+]1c(/C=C/c2ccc(O)cc2)sc2ccccc21` [JFA, (E)-2-(4-hydroxystyryl)-3-(prop-2-yn-1-yl)benzo[d]thiazol-3-ium], the “reactivity with endogenous peroxidases” value in the assay on endogenous peroxidases is reported as “can also react with endogenous peroxidases”. Further, the “fluorescence staining in live cells” value in the assay with TOM20-V5-APEX2 is listed as “red fluorescence stains”.

In the case of `CCN(CC)CCO[C@H]1CC[C@@]2(C)C(=CC[C@@H]3[C@@H]2CC[C@]2(C)C(=O)CC[C@@H]32)C1` [U18666A], in assay [1], the “fold increase of lysosomal diameter vs DMSO treatment” value came to 2.2 fold, the mitochondria-lysosome co-localization result is on record as “enhanced co-localization” and the mean lysosomal diameter was found to be 0.87 μm.

The values are drawn from patent US20260118350A1, “Fluorescent Probes for Peroxidase-Mediated Fluorescent Signal Amplification” (Seoul National University R&DB Foundation, priority 2024, published 2026).
